Experimental data published in PubChem BioAssay (NCI).
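Tested at 5 concentrations; 48 h exposure; 96-well plates; endpoints linearly interpolated, else capped at highest concentration. At the TGI there is no net growth.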

Columns and labels:
Assay in all cases: DTP human tumour cell line panel, 48 h
HOP-92 NSCLC = tested on: HOP-92 NSCLC
ACHN renal = tested on: ACHN renal
HCC-2998 colon = tested on: HCC-2998 colon
MDA-MB-435 = tested on: MDA-MB-435
MALME-3M melanoma = tested on: MALME-3M melanoma
HOP-62 NSCLC = tested on: HOP-62 NSCLC
SW-620 colon = tested on: SW-620 colon
MDA-N = tested on: MDA-N
SF-268 CNS = tested on: SF-268 CNS
EKVX NSCLC = tested on: EKVX NSCLC
SF-539 CNS = tested on: SF-539 CNS
MCF7 breast = tested on: MCF7 breast
DU-145 prostate = tested on: DU-145 prostate
NCI/ADR-RES ovarian = tested on: NCI/ADR-RES ovarian
TK-10 renal = tested on: TK-10 renal
NCI-H522 lung = tested on: NCI-H522 lung
A498 renal = tested on: A498 renal
KM12 colon = tested on: KM12 colon
PC-3 prostate = tested on: PC-3 prostate
CCRF-CEM leukemia = tested on: CCRF-CEM leukemia

Row | SMILES | TGI (HOP-92 NSCLC) [µM] | TGI (ACHN renal) [µM] | TGI (HCC-2998 colon) [µM] | TGI (MDA-MB-435) [µM] | TGI (MALME-3M melanoma) [µM] | TGI (HOP-62 NSCLC) [µM] | TGI (SW-620 colon) [µM] | TGI (MDA-N) [µM] | TGI (SF-268 CNS) [µM] | TGI (EKVX NSCLC) [µM] | TGI (SF-539 CNS) [µM] | TGI (MCF7 breast) [µM] | TGI (DU-145 prostate) [µM] | TGI (NCI/ADR-RES ovarian) [µM] | TGI (TK-10 renal) [µM] | TGI (NCI-H522 lung) [µM] | TGI (A498 renal) [µM] | TGI (KM12 colon) [µM] | TGI (PC-3 prostate) [µM] | TGI (CCRF-CEM leukemia) [µM]
1 | CC(=N/N=C/c1ccccn1)/C(C)=N/N=C(C)/C(C)=N/N=C(C)/C(C)=N/N=C(C)/C(C)=N\N=C\c1ccccn1 | > 100 | > 100 | > 100 | > 100 | > 100 | > 100 | > 100 | > 100 | > 100 | > 100 | > 100 | > 100 | > 100 | > 100 | > 100 | > 100 | > 100 | > 100 | > 100 | –
2 | NS(=O)(=O)c1cc2c(cc1Cl)NC(CCC(=O)O)=NS2(=O)=O | > 100 | > 100 | – | > 100 | > 100 | > 100 | > 100 | > 100 | > 100 | > 100 | > 100 | > 100 | > 100 | > 100 | > 100 | > 100 | > 100 | > 100 | > 100 | –
3 | O=C(O)c1ccccc1CC1Cc2ccccc2C1=O (centres undefined) | > 100 | > 100 | > 100 | > 100 | > 100 | > 100 | > 100 | > 100 | > 100 | > 100 | > 100 | > 100 | > 100 | > 100 | > 100 | > 100 | – | > 100 | > 100 | > 100
4 | CCC1(CC)C(=O)NN(C(=O)c2ccccc2)C1=O | – | > 100 | > 100 | > 100 | > 100 | > 100 | > 100 | > 100 | > 100 | > 100 | – | > 100 | > 100 | > 100 | > 100 | > 100 | – | > 100 | > 100 | > 100
5 | Cc1nc(N)c(N2CCN([N+](=O)[O-])CC2)c(=O)[nH]1 | – | > 100 | > 100 | > 100 | > 100 | > 100 | > 100 | > 100 | > 100 | > 100 | > 100 | > 100 | > 100 | > 100 | > 100 | > 100 | > 100 | > 100 | > 100 | > 100
6 | O=C(Nc1nccs1)c1c(O)nc2sccn2c1=O | – | > 10 | > 10 | > 10 | > 10 | > 10 | > 10 | > 10 | > 10 | > 10 | > 10 | > 10 | > 10 | > 10 | > 10 | > 10 | > 10 | > 10 | > 10 | > 10
7 | CCN(CC)/C(SCc1ccccc1)=C(\C(Cl)=C(Cl)Cl)[N+](=O)[O-] | – | 29.8 | 47.7 | 32 | 21.8 | 45.6 | 50.4 | 33.8 | 46.6 | 56.4 | 39.4 | 32.1 | 39.2 | 38 | 33.3 | 47.2 | 26.9 | 36.5 | 47.1 | 52.2
8 | CCCC(=O)OC1CC(n2cc(F)c(=O)[nH]c2=O)OC1COP(=O)(OCC(Cl)(Cl)Cl)OCC(Cl)(Cl)Cl (centres undefined) | > 100 | > 96 | 3.34 | > 100 | > 100 | > 100 | > 100 | > 31.6 | > 31.6 | > 100 | – | > 100 | > 67.6 | > 31.6 | > 100 | 16.6 | – | > 100 | > 100 | 94.4
9 | Cc1c(S(=O)(=O)c2ccccc2)c(N)n(CCN(C)C)c1C | > 100 | > 100 | > 100 | > 100 | > 100 | – | > 100 | > 100 | > 100 | > 100 | > 100 | > 100 | > 100 | > 100 | > 100 | > 100 | > 100 | > 100 | > 100 | > 100
10 | CCOC(=O)c1ccc(NCC#CCN2CCOCC2)cc1 | > 100 | > 100 | – | > 100 | > 100 | > 100 | > 100 | > 100 | > 100 | > 100 | > 100 | > 100 | > 100 | > 100 | – | – | > 100 | > 100 | > 100 | > 100
11 | O=c1c2sc(=S)n(-c3ccc(F)cc3)c2ncn1/N=C/c1ccc(F)cc1F | 44 | > 100 | > 100 | > 100 | 41.6 | 30.7 | > 100 | > 100 | 43.1 | 39.2 | – | > 100 | 39.4 | > 100 | 40 | > 100 | 58.2 | > 100 | > 100 | > 100
12 | CCN(CC)CCn1c(=O)c2cccnc2n2c3c(=O)n(C)c(=O)n(C)c3nc12 | > 100 | > 100 | > 100 | > 100 | > 100 | > 100 | > 100 | > 100 | > 100 | > 100 | > 100 | > 100 | > 100 | > 100 | 57.4 | > 100 | – | > 100 | > 100 | > 100
13 | CC1OC(OC2C(OC(=O)[C@]34CCC(C)(C)C[C@H]3C3=CC[C@@H]5[C@@]6(C)CC[C@H](OC7OC(C(=O)O)C(O)C(O)C7O)C(C)(C)[C@@H]6CC[C@@]5(C)[C@]3(C)C[C@H]4O)OCC(O)C2O)C(O)C(OC2OCC(O)(CO)C2O)C1OC1OCC(O)C(O)C1O (some centres undefined) | 26.7 | 17.4 | 3.32 | 20.7 | 24.7 | 32.4 | 23.2 | 16 | 33.7 | 16.2 | – | 18.3 | 25.8 | 27.9 | – | 16.5 | 3.47 | 16.3 | 21.3 | 52.1
14 | COc1cc(/C=C/C(=O)CC(=O)/C=C/c2ccc(OC(=O)CCCCC3CCSS3)c(OC)c2)ccc1OC(=O)CCCCC1CCSS1 (centres undefined) | – | > 100 | – | > 100 | > 100 | > 100 | > 100 | > 100 | > 100 | > 100 | > 100 | > 100 | > 100 | > 100 | > 100 | > 100 | – | > 100 | > 100 | > 100
15 | N#CC12C(=O)N=C(N)C1(C#N)C(c1ccco1)NC1=C2CCCC1 (centres undefined) | > 100 | > 100 | > 100 | > 100 | > 100 | > 100 | > 100 | > 100 | > 100 | > 100 | – | > 100 | > 100 | > 100 | > 100 | > 100 | > 100 | > 100 | > 100 | > 100
16 | Cc1ccc(C(=C2Sc3ccccc3S2)C(=C2Sc3ccccc3S2)c2ccc(C)s2)s1 | – | > 100 | > 100 | > 100 | > 100 | > 100 | > 100 | > 100 | > 100 | > 100 | – | > 100 | > 100 | > 100 | > 100 | > 100 | > 100 | > 100 | > 100 | > 100
17 | CC1=C[C@@H]2Cc3nc4cc(Cl)ccc4c(N)c3[C@H](C1)C2 | 10.8 | 23.1 | – | 25.8 | 24.6 | 24 | 25.3 | 31.5 | 25.8 | 13.3 | 25.3 | 23.3 | 27.3 | 25 | 19.5 | – | 23.4 | 21.6 | 26.9 | 74
18 | O=C(O)/C=C(/C(=O)O)C12CCN3CC4=CCOC5CC(=O)NC1C5C4CC32 (centres undefined) | > 100 | > 100 | – | > 100 | > 100 | > 100 | > 100 | > 100 | > 100 | > 100 | > 100 | > 100 | > 100 | > 100 | > 100 | > 100 | > 100 | > 100 | > 100 | > 100
19 | OCCc1ccsc1-c1sc(-c2cc(CCO)c(-c3sccc3CCO)s2)cc1CCO | 32.6 | 35.9 | 30.2 | 41.1 | 23.7 | 27.6 | > 100 | 63.5 | 14 | 32.4 | – | 31 | 32.9 | 38.5 | 44 | 25.7 | 40.3 | 11.5 | 24.1 | > 100
20 | CS(=O)c1ncc2c(n1)-c1ccccc1OC2 (centres undefined) | > 100 | > 100 | > 100 | > 100 | > 100 | > 100 | > 100 | > 100 | > 100 | > 100 | > 100 | > 100 | > 100 | > 100 | > 100 | > 100 | – | > 100 | > 100 | > 100
21 | CCN(CCCN(CC)C(=O)Nc1c(C)cccc1C)C(=O)Nc1c(C)cccc1C | > 100 | > 100 | > 100 | > 100 | > 100 | > 100 | > 100 | > 100 | > 100 | > 100 | – | > 100 | > 100 | > 100 | > 100 | > 100 | > 100 | > 100 | > 100 | –
22 | CCNC(=O)Cc1nc2c(N)ncnc2n1C1OC(CO)C(O)C1O (centres undefined) | > 100 | > 100 | > 100 | > 100 | > 100 | > 100 | > 100 | > 100 | > 100 | > 100 | > 100 | 86.5 | > 100 | > 100 | > 100 | > 100 | > 100 | > 100 | > 100 | –
23 | C=CCSc1nnc2cc(CN3CCCC3)c(-c3ccc(Cl)cc3)nn12 | 34.3 | 38.3 | – | 41.7 | 43.2 | 45.4 | 93 | 34.2 | 46 | 43.8 | 36.2 | 33.7 | 43.7 | 56.3 | 43.7 | 42.6 | 35.9 | 64.7 | 35.3 | > 100
24 | O=C(O)CCC(=O)OC1N=C(c2ccccc2Cl)c2cc([N+](=O)[O-])ccc2NC1=O (centres undefined) | > 100 | > 100 | > 100 | > 100 | > 100 | > 100 | > 100 | > 100 | > 100 | > 100 | – | > 100 | > 100 | > 100 | > 100 | > 100 | > 100 | > 100 | > 100 | > 100
